Assays:
MDA-MB-231 = experiment: Antiproliferative activity against human MDA-MB-231 cells assessed as reduction in cell viability measured after 48 hrs by MTT assay; format: functional, cell-based; details: MDA-MB-231, 48 h
HT-29 = experiment: cells; details: Homo sapiens, HT-29, 72 h
Plasmodium falciparum [1] = experiment: Antimalarial activity against Plasmodium falciparum NF54 assessed as reduction in cell growth; format: functional, organism-based
A549 = experiment: cells; details: Homo sapiens, A549, 48 h
Plasmodium falciparum [2] = experiment: Antiplasmodial activity against Plasmodium falciparum NF54 assessed as reduction in malarial growth; format: functional, organism-based
[3] = Cytotoxicity against African green monkey Vero cells; format: toxicity, cell-based; details: chlorocebus sabaeus, read-out: TC50 (the source's name)
KB = experiment: Antiproliferative activity against human KB cells assessed as reduction in cell viability incubated for 48 hrs by MTT assay; format: functional, cell-based
Plasmodium falciparum [4] = experiment: Antimalarial activity against Plasmodium falciparum K1 assessed as inhibition of malarial growth; format: functional, organism-based

## C[C@@H]1CC[C@H]2[C@@H](C)C(OCCN/C(=N/c3cccc(F)c3)NCCOC3O[C@@H]4O[C@]5(C)CC[C@@H]6[C@@H](C)CC[C@H]([C@@H]3C)[C@]46OO5)O[C@H]3O[C@@]4(C)CC[C@@H]1[C@]32OO4 (stereo not given in full)
MDA-MB-231
  IC50: 1330 nM
HT-29
  IC50: 90 nM

## C[C@@H]1CC[C@H]2[C@@H](C)C(CC(=O)CC3O[C@H]4O[C@@]5(C)CC[C@H]6[C@H](C)CC[C@@H]([C@H]3C)[C@@]46OO5)O[C@H]3O[C@@]4(C)CC[C@@H]1[C@]32OO4 (stereo not given in full)
Plasmodium falciparum [1]
  IC50: 0.91 nM

## C[C@@H]1CC[C@H]2[C@@H](C)C(OCCN/C(=N/c3cc(C(F)(F)F)ccc3F)NCCOC3O[C@@H]4O[C@]5(C)CC[C@@H]6[C@@H](C)CC[C@H]([C@@H]3C)[C@]46OO5)O[C@H]3O[C@@]4(C)CC[C@@H]1[C@]32OO4 (stereo not given in full)
MDA-MB-231
  IC50: 1420 nM
A549
  IC50: 240 nM
HT-29
  IC50: 20 nM

## COc1cc(OC)c(C2O[C@H]3O[C@@]4(C)CC[C@H]5[C@H](C)CC[C@@H]([C@H]2C)[C@@]35OO4)cc1C1O[C@H]2O[C@@]3(C)CC[C@H]4[C@H](C)CC[C@@H]([C@H]1C)[C@@]24OO3 (stereo not given in full)
Plasmodium falciparum [2]
  IC50: 1.3 nM

## C[C@@H]1CC[C@H]2[C@@H](C)C(/C=C\c3ccc(/C=C\C4O[C@H]5O[C@@]6(C)CC[C@H]7[C@H](C)CC[C@@H]([C@H]4C)[C@@]57OO6)cc3)O[C@H]3O[C@@]4(C)CC[C@@H]1[C@]32OO4 (stereo not given in full)
Plasmodium falciparum [2]
  IC50: 18 nM

## CCN(CC)CCCC(C)Nc1ccnc2cc(Cl)ccc12 (stereo not given) [CHLOROQUINE]
[3]
  CC50: > 14900 nM

## C[C@@H]1CC[C@H]2[C@@H](C)C(CC(COC(=O)c3ccncc3)CC3O[C@H]4O[C@@]5(C)CC[C@H]6[C@H](C)CC[C@@H]([C@H]3C)[C@@]46OO5)O[C@H]3O[C@@]4(C)CC[C@@H]1[C@]32OO4 (stereo not given in full)
Plasmodium falciparum [1]
  IC50: 1.7 nM

## C[C@@H]1CC[C@H]2[C@@H](C)C(CC(=O)c3cccc(C(=O)CC4O[C@H]5O[C@@]6(C)CC[C@H]7[C@H](C)CC[C@@H]([C@H]4C)[C@@]57OO6)c3)O[C@H]3O[C@@]4(C)CC[C@@H]1[C@]32OO4 (stereo in doubt)
Plasmodium falciparum [2]
  IC50: 1.9 nM

## CCCC[C@@]1(C[C@@H]2C(=O)O[C@H]3O[C@@]4(C)CC[C@H]5[C@H](C)CC[C@@H]2[C@@]35OO4)O[C@H]2O[C@@]3(C)CC[C@H]4[C@H](C)CC[C@@H]([C@H]1C)[C@@]24OO3
[3]
  CC50: > 130000 nM

## C[C@@H]1CC[C@H]2[C@@H](C)C(OCCN/C(=N/c3ccc(Cl)cc3Cl)NCCOC3O[C@@H]4O[C@]5(C)CC[C@@H]6[C@@H](C)CC[C@H]([C@@H]3C)[C@]46OO5)O[C@H]3O[C@@]4(C)CC[C@@H]1[C@]32OO4 (stereo not given in full)
MDA-MB-231
  IC50: 2080 nM
A549
  IC50: 640 nM
HT-29
  IC50: 50 nM

## C[C@@H]1CC[C@H]2[C@@H](C)C(OCCN/C(=N/c3ccc(Cl)cc3)NCCOC3O[C@@H]4O[C@]5(C)CC[C@@H]6[C@@H](C)CC[C@H]([C@@H]3C)[C@]46OO5)O[C@H]3O[C@@]4(C)CC[C@@H]1[C@]32OO4 (stereo not given in full)
MDA-MB-231
  IC50: 1260 nM
A549
  IC50: 980 nM
HT-29
  IC50: 100 nM

## C[C@@H]1CC[C@H]2[C@@H](C)C(OCCN/C(=N/c3cccc(Cl)c3)NCCOC3O[C@@H]4O[C@]5(C)CC[C@@H]6[C@@H](C)CC[C@H]([C@@H]3C)[C@]46OO5)O[C@H]3O[C@@]4(C)CC[C@@H]1[C@]32OO4 (stereo not given in full)
MDA-MB-231
  IC50: 1170 nM
A549
  IC50: 720 nM
HT-29
  IC50: 100 nM

## C[C@@H]1CC[C@H]2[C@@H](C)C(CC(O)(CO)CC3O[C@H]4O[C@@]5(C)CC[C@H]6[C@H](C)CC[C@@H]([C@H]3C)[C@@]46OO5)O[C@H]3O[C@@]4(C)CC[C@@H]1[C@]32OO4 (stereo not given in full)
Plasmodium falciparum [1]
  IC50: 0.59 nM

## C[C@@H]1CC[C@H]2[C@@H](C)C(/C=C/c3cccc(/C=C/C4O[C@@H]5O[C@]6(C)CC[C@@H]7[C@@H](C)CC[C@H]([C@@H]4C)[C@]57OO6)c3)O[C@H]3O[C@@]4(C)CC[C@@H]1[C@]32OO4 (stereo not given in full)
Plasmodium falciparum [2]
  IC50: 77 nM

## C[C@@H]1CC[C@H]2[C@@H](C)C(CC(O)(CCS(=O)(=O)c3ccc(C(=O)O)cc3)CC3O[C@H]4O[C@@]5(C)CC[C@H]6[C@H](C)CC[C@@H]([C@H]3C)[C@@]46OO5)O[C@H]3O[C@@]4(C)CC[C@@H]1[C@]32OO4 (stereo not given in full)
Plasmodium falciparum [1]
  IC50: 2.4 nM

## C[C@@H]1CC[C@H]2[C@@H](C)C(/C=C\c3cccc(/C=C/C4O[C@H]5O[C@@]6(C)CC[C@H]7[C@H](C)CC[C@@H]([C@H]4C)[C@@]57OO6)c3)O[C@H]3O[C@@]4(C)CC[C@@H]1[C@]32OO4 (stereo not given in full)
Plasmodium falciparum [2]
  IC50: 35 nM

## C[C@@H]1CC[C@H]2[C@@H](C)C(CC3(CC4O[C@H]5O[C@@]6(C)CC[C@H]7[C@H](C)CC[C@@H]([C@H]4C)[C@@]57OO6)CO3)O[C@H]3O[C@@]4(C)CC[C@@H]1[C@]32OO4 (stereo not given in full)
Plasmodium falciparum [1]
  IC50: 2.8 nM

## C[C@H]1[C@H](CC(=O)c2ccc(C(=O)CC[C@H]3O[C@H]4O[C@@]5(C)CC[C@H]6[C@H](C)CC[C@@H]([C@H]3C)[C@@]46OO5)cc2)O[C@H]2O[C@@]3(C)CC[C@H]4[C@H](C)CC[C@@H]1[C@@]24OO3
Plasmodium falciparum [1]
  IC50: 3.9 nM
Plasmodium falciparum [2]
  IC50: 1.7 nM

## C[C@H]1[C@H](CCC(=O)c2ccc(C(=O)C[C@@H]3O[C@H]4O[C@@]5(C)CC[C@H]6[C@H](C)CC[C@@H]([C@H]3C)[C@@]46OO5)cc2)O[C@H]2O[C@@]3(C)CC[C@H]4[C@H](C)CC[C@@H]1[C@@]24OO3
Plasmodium falciparum [2]
  IC50: 1.9 nM

## C[C@@H]1CC[C@H]2[C@@H](C)C(CC#Cc3cccc(C#CCC4O[C@H]5O[C@@]6(C)CC[C@H]7[C@H](C)CC[C@@H]([C@H]4C)[C@@]57OO6)c3)O[C@H]3O[C@@]4(C)CC[C@@H]1[C@]32OO4 (stereo not given in full)
Plasmodium falciparum [2]
  IC50: 36 nM

## CCC[C@@]1(C[C@@H]2C(=O)O[C@H]3O[C@@]4(C)CC[C@H]5[C@H](C)CC[C@@H]2[C@@]35OO4)O[C@H]2O[C@@]3(C)CC[C@H]4[C@H](C)CC[C@@H]([C@H]1C)[C@@]24OO3
[3]
  CC50: > 130000 nM

## C[C@@H]1CC[C@H]2[C@@H](C)C(OCCN/C(=N/c3cccc(Br)c3)NCCOC3O[C@@H]4O[C@]5(C)CC[C@@H]6[C@@H](C)CC[C@H]([C@@H]3C)[C@]46OO5)O[C@H]3O[C@@]4(C)CC[C@@H]1[C@]32OO4 (stereo not given in full)
MDA-MB-231
  IC50: 1570 nM
A549
  IC50: 360 nM
HT-29
  IC50: 400 nM

## C[C@@H]1CC[C@H]2[C@@H](C)C(CC(COS(=O)(=O)c3cccc4c(N(C)C)cccc34)CC3O[C@H]4O[C@@]5(C)CC[C@H]6[C@H](C)CC[C@@H]([C@H]3C)[C@@]46OO5)O[C@H]3O[C@@]4(C)CC[C@@H]1[C@]32OO4 (stereo not given in full)
Plasmodium falciparum [1]
  IC50: 3.9 nM

## C[C@@H]1CC[C@H]2[C@@H](C)C(CC(O)(CC3O[C@@H]4O[C@]5(C)CC[C@@H]6[C@@H](C)CC[C@H]([C@@H]3C)[C@]46OO5)c3ccc(C(=O)O)cc3)O[C@H]3O[C@@]4(C)CC[C@@H]1[C@]32OO4 (stereo not given in full)
Plasmodium falciparum [1]
  IC50: 2.1 nM

## C[C@@H]1CC[C@H]2[C@@H](C)C(OCCN/C(=N/c3ccc(C(F)(F)F)cc3)NCCOC3O[C@@H]4O[C@]5(C)CC[C@@H]6[C@@H](C)CC[C@H]([C@@H]3C)[C@]46OO5)O[C@H]3O[C@@]4(C)CC[C@@H]1[C@]32OO4 (stereo not given in full)
MDA-MB-231
  IC50: 1180 nM
A549
  IC50: 680 nM
HT-29
  IC50: 60 nM

## CCCCCC[C@@]1(C[C@@H]2C(=O)O[C@H]3O[C@@]4(C)CC[C@H]5[C@H](C)CC[C@@H]2[C@@]35OO4)O[C@H]2O[C@@]3(C)CC[C@H]4[C@H](C)CC[C@@H]([C@H]1C)[C@@]24OO3
[3]
  CC50: 2500 nM
KB
  IC50: 4000 nM

## C[C@@H]1CC[C@H]2[C@@H](C)C(OC/C=C\COC3O[C@H]4O[C@@]5(C)CC[C@H]6[C@H](C)CC[C@@H]([C@H]3C)[C@@]46OO5)O[C@H]3O[C@@]4(C)CC[C@@H]1[C@]32OO4 (stereo not given in full)
KB
  IC50: 320 nM

## C[C@@H]1CC[C@H]2[C@@H](C)C(CC(COC(=O)c3cc(=O)oc4cc(N(C)C)ccc34)CC3O[C@H]4O[C@@]5(C)CC[C@H]6[C@H](C)CC[C@@H]([C@H]3C)[C@@]46OO5)O[C@H]3O[C@@]4(C)CC[C@@H]1[C@]32OO4 (stereo not given in full)
Plasmodium falciparum [1]
  IC50: 2.4 nM

## C[C@@H]1CC[C@H]2[C@@H](C)C(CC#Cc3ccc(C#CCC4O[C@H]5O[C@@]6(C)CC[C@H]7[C@H](C)CC[C@@H]([C@H]4C)[C@@]57OO6)cc3)O[C@H]3O[C@@]4(C)CC[C@@H]1[C@]32OO4 (stereo not given in full)
Plasmodium falciparum [2]
  IC50: 30 nM

## C[C@@H]1CC[C@H]2[C@@H](C)C(CCOCc3ccc(COCCC4O[C@H]5O[C@@]6(C)CC[C@H]7[C@H](C)CC[C@@H]([C@H]4C)[C@@]57OO6)cc3)O[C@H]3O[C@@]4(C)CC[C@@H]1[C@]32OO4 (stereo not given in full)
Plasmodium falciparum [4]
  IC50: 2.4 nM

## C[C@@H]1CC[C@H]2[C@@H](C)C(OCCN/C(=N/c3ccc(OC(F)(F)F)cc3)NCCOC3O[C@@H]4O[C@]5(C)CC[C@@H]6[C@@H](C)CC[C@H]([C@@H]3C)[C@]46OO5)O[C@H]3O[C@@]4(C)CC[C@@H]1[C@]32OO4 (stereo not given in full)
A549
  IC50: 170 nM
HT-29
  IC50: 240 nM

## C=C(CC1O[C@H]2O[C@@]3(C)CC[C@H]4[C@H](C)CC[C@@H]([C@H]1C)[C@@]24OO3)CC1O[C@H]2O[C@@]3(C)CC[C@H]4[C@H](C)CC[C@@H]([C@H]1C)[C@@]24OO3 (stereo not given in full)
Plasmodium falciparum [1]
  IC50: 24 nM
Plasmodium falciparum [2]
  IC50: 24 nM

## C[C@@H]1CC[C@H]2[C@@H](C)C(CC(O)(COC(=O)CCC(=O)O)CC3O[C@H]4O[C@@]5(C)CC[C@H]6[C@H](C)CC[C@@H]([C@H]3C)[C@@]46OO5)O[C@H]3O[C@@]4(C)CC[C@@H]1[C@]32OO4 (stereo not given in full)
Plasmodium falciparum [1]
  IC50: 3 nM

Reference: ChEMBL document CHEMBL5257025, “Artemisinin-Derived Dimers: Potent Antimalarial and Anticancer Agents” (J Med Chem, 2016)
